Experimental data reported in patent US20220031680A1, “Donecopride As Neuroprotective Agent In the Treatment of Neurodegenerative Diseases” (priority 2018, published 2022).
Values joined by “and” are separate entries in the source; they are usually repeats but may differ in a detail not shown here. Equal entries are not always repeated.

Tested on: rat primary cortical neurons after glutamate injury
Experiment: Survival and neurite network of primary cortical neurons after glutamate injury
Format: cell-based
Details: glutamate 20 μM 20 min; for concentrations significantly protecting cortical neurons from death: compound 1 h before and 48 h after; for concentration of maximal effect on neurite network: cortical neurons
Method: The present study assesses the neuroprotective effect of MR36014 and MR33583 (at 4 concentrations) in rat primary cortical neurons after glutamate injury. The test compounds were pre-incubated for 1 hour before glutamate application (20 μM for 20 min). The neuroprotective effect (survival and neurite network) of test compounds were investigated.
Rat cortical neurons were cultured as described by Callizot et al. (2013) J. Neurosci. Res. 91:706-716. Pregnant female rat (Wistar) of 15 days of gestation were killed using a deep anesthesia with CO2 chamber and a cervical dislocation. Briefly, fetuses were collected and immediately placed in ice-cold L15 Leibovitz medium with a 2% penicillin (10,000 U/mL) and streptomycin (10 mg/mL) solution (PS) and 1% bovine serum albumin (BSA). Cortex were treated for 20 min at 37° C. with a trypsin-EDTA solution at a final concentration of 0.05% trypsin and 0.02% EDTA. The dissociation was stopped by addition of Dulbecco's modified Eagle's medium (DMEM) with 4.5 g/l of glucose, containing DNAse I grade II (final concentration 0.5 mg/ml) and 10% fetal calf serum (FCS). Cells were mechanically dissociated by three forced passages through the tip of a 10-ml pipette. Cells were then centrifuged at 515×g for 10 min at 4° C. The supernatant was discarded, and the pellet was resuspended in a defined culture medium consisting of Neurobasal medium with a 2% solution of B27 supplement, 2 mmol/I L-glutamine, 2% PS solution, and 10 ng/ml brain-derived neurotrophic factor (BDNF). Viable cells were counted in a Neubauer cytometer, using the trypan blue exclusion test.
The cells were seeded at a density of 25,000 per well in 96-well plates precoated with poly-L-lysine and were cultured at 37° C. in an air (95%)-CO2 (5%) incubator.
Pre-incubation: On day 13 of culture, the compounds were dissolved in the culture medium and pre-incubated with primary cortical neurons for 1 hour, before glutamate exposure.
Injury: 1 hour after test compound incubation, glutamate was added to a final concentration of 20 μM diluted in control medium still in presence of the test compounds for 20 min. After 20 min, glutamate was washed out and fresh culture medium with the test compounds were added for additional 48 hours.
Test compounds were tested in 96-well plate (n=6 culture wells per condition). The following conditions were assessed: […]
The following read-outs will be investigated: • The total neuron survival (MAP-2 positive, number), (data will be expressed into mean number of neurons of 30 pictures per well). • The total neurite network (MAP-2 in μm), (data will be expressed into mean of neurons of 30 pictures per well).

| Compound | concentrations significantly protecting cortical neurons from death | concentration of maximal effect on neurite network [nM] |
| --- | --- | --- |
| COc1cc(N)c(F)cc1C(=O)CCC1CCN(CC2CCCCCC2)CC1 [MR36014] | 1 nM | 1 |
| COc1cc(N)c(F)cc1C(=O)CCC1CCN(CC2CCCC2)CC1 [MR33583] | 50 nM and 100 nM | 50 |
